Data published in US9161925B2, “Therapeutic uses of beta-3 adrenergic receptor agonist derivatives in particular to modulate apoptosis” (SANOFI, priority 2007, dated 2015).

How the values were obtained:
Type in all cases: cell-based, human
IL6 = assay: Cytometric Bead Array, IL6 in supernatants of myometrial strips
Protocol: (§1) Myometrial biopsies obtained from women with uncomplicated pregnancies were immediately transferred in sterile Dubelcco's Modified Eagle Medium (DMEM) and washed twice with sterile Phosphate Buffer Saline (PBS). Biopsies were cut into small strips, each being placed in a 24-well plate containing 2 ml of culture medium DMEM, without the use of antibiotics. Strips were then incubated at 37° C. with 5% CO2 for 48 h in order to allow cytokine levels to return to basal values (Fortunato S J, et al. Am J Reprod Immunol 1994; 32: 184-187).
(§2) In order to reproduce with LPS (Escherichia coli 055:B5) the findings on myometrial samples obtained from women with chorioamnionitis, myometrial strips were incubated with three different concentrations of LPS (50 ng/ml, 1 μg/ml and 10 μg/ml) at three different times (8 h, 24 h, 48 h). […]
(§3) Cytokines measurements were determined by Cytometric Bead Array (CBA; Bender MedSystems). Supernatants of 5 myometrial strips were incubated with labeled capture beads and detection reagent for 3 h in the dark at room temperature, and analyzed with a flow cytometer (FACSCalibur; BD Biosciences) by using the respective CBA Analysis software (BD Biosciences) and Bender MedSystems software. Cytokine standards for quantification (pg/mL) as well as the blanks were handled in the same manner as the samples. […]

BAX protein = assay: Western blot of BAX in myometrial strips stimulated with LPS
Protocol: (§4) Myometrial biopsies obtained from women with uncomplicated pregnancies were immediately transferred in sterile Dubelcco's Modified Eagle Medium (DMEM) and washed twice with sterile Phosphate Buffer Saline (PBS). Biopsies were cut into small strips, each being placed in a 24-well plate containing 2 ml of culture medium DMEM, without the use of antibiotics. Strips were then incubated at 37° C. with 5% CO2 for 48 h in order to allow cytokine levels to return to basal values (Fortunato S J, et al. Am J Reprod Immunol 1994; 32: 184-187). […]
(§5) Snap-frozen myometrial tissues were homogenized with Ultra-Turrax in homogenization buffer [10 mM Tris-HCl (pH 7.4), 1 mM EDTA, […] leupeptine, 2 mM Pefabloc]. After an initial centrifugation at 500×g for 15 min at 4° C., total protein supernatant content was determined by the Bradford method with BSA as standard. […] Immunoreactive proteins were detected by chemiluminescence (ECL™ detection reagents, RPN2105, Amersham, USA) and exposure to a X-ray film (Hyperfilm™, Amersham Bioscience, USA). The intensities of the bands were analyzed densitometrically using the NIH Image 1.62 program and normalized with intensity of bands obtained with monoclonal antibody to Glyceraldehyde 3-Phosphate Dehydrogenase (GAPDH) used as protein loading control. Results are expressed as the mean±s.e.m. in Arbitrary Density Unit (A.D.U).

caspase-3 transcripts = assay: Real time quantitative RT-PCR of caspase-3 transcripts in myometrial tissue; details: LPS alone 2.08±0.63
Protocol: as §1
In order to reproduce with LPS (Escherichia coli 055:B5) the findings on myometrial samples obtained from women with chorioamnionitis, myometrial strips were incubated with three different concentrations of LPS (50 ng/ml, 1 μg/ml and 10 μg/ml) at three different times (8 h, 24 h, 48 h). In a second set of experiments, in order to assess the role of TNF in LPS-induced apoptosis in myometrial tissue, the strips were incubated with LPS 10 μg/ml for 48 h with or without anti TNF antibodies (0.6 μg/ml) (Human TNF alpha/TNFSF1A antibody, R&D systems Europe, Lille, France, the concentration of the antibody used was chosen based on the manufacturer's recommendations). […]
Total RNA was prepared from 5 myometrial tissues obtained from 5 different women, using Trizol solution (Life Technologies, Groningen, The Netherlands) according to the manufacturer's instructions. […] Real time quantitative PCR analyses were performed using 25 ng of reverse transcribed total RNA with 200 nM of both sense and anti sense primers in a final volume of 25 μl using the SYBR Green PCR jumpstart reagent (Sigma, Saint Louis, Mo., USA) in an iCycler iQ real time detection system instrument (Bio-Rad, Marnes-la-Coquette, France). PCR products were also analyzed on edithium bromide stained agarose gel to ensure that a single amplicon of the expected size was indeed obtained. […]

BCL2 protein = assay: Western blot of BCL2 in myometrial strips stimulated with LPS
Protocol: as §4, §5

IL8 = assay: Cytometric Bead Array, IL8 in supernatants of myometrial strips
Protocol: as §1, §2, §3

[1] = system: cleaved caspase-3 protein; assay: Western blot of cleaved caspase-3 in myometrial strips stimulated with LPS
Protocol: as §4, §5

[2] = tissues not stimulated with LPS (data not shown)
[3] = Compound A 10^-7, 10^-6, 10^-5 M with LPS 10 μg/ml 48 h, ANOVA P<0.01, FIG. 4

## CCOC(=O)c1ccc([C@H]2CC[C@H](NC[C@H](O)COc3ccc(O)c(NS(C)(=O)=O)c3)CC2)cc1.Cl [Compound A, Ethyl-4-{trans-4-[((2S)-2-hydroxy-3-{4-hydroxy-3[(methylsulfonyl)-amino]phenoxy}propyl)amino]cyclohexyl}benzoate hydrochloride]
IL6; Compound A with LPS, concentration dependent, not statistically significant, FIG. 5
  effect on LPS-induced IL6: decreased
IL6; [2]
  effect by itself on IL6 release: not effect
BAX protein; [3]
  antagonism of LPS-induced BAX protein up-regulation: antagonized in a concentration dependant manner
BAX protein; [2]
  effect by itself on BAX expression: no effect
caspase-3 transcripts; LPS with Compound A 10^-5 M
  caspase-3 transcripts, fold increase normalized to GAPDH compared with controls: 0.93±0.41 fold
caspase-3 transcripts; LPS with Compound A 10^-6 M
  caspase-3 transcripts, fold increase normalized to GAPDH compared with controls: 0.84±0.53 fold
caspase-3 transcripts; LPS with Compound A 10^-7 M
  caspase-3 transcripts, fold increase normalized to GAPDH compared with controls: 1.17±0.81 fold
BCL2 protein; [3]
  antagonism of LPS-induced BCL2 protein down-regulation: antagonized in a concentration dependant manner
BCL2 protein; [2]
  effect by itself on BCL2 expression: no effect
IL8; Compound A with LPS, concentration dependent, ANOVA P=0.01, FIG. 5
  effect on LPS-induced IL8: decreased
IL8; [2]
  effect by itself on IL8 release: not effect
[1]; Compound A 10^-7, 10^-6, 10^-5 M with LPS 10 μg/ml 48 h, concentration dependent, ANOVA P<0.001, FIG. 3
  antagonism of LPS-induced changes in cleaved caspase-3 expression: significantly antagonize
[1]; [2]
  effect by itself on cleaved caspase-3 expression: no effect
